Experimental data published in ChEMBL document CHEMBL1821593, “Synthesis and α-Glucosidase II inhibitory activity of valienamine pseudodisaccharides relevant to N-glycan biosynthesis” (Bioorg Med Chem Lett, 2011).
pIC50: −log10 of the molar value. Values belong to the molecule of their own block, whether it stands above or below them. Active and inactive are the calls of the source. The calls are words filed in the database; no cut-off is given here.

Columns and labels:
Rattus norvegicus [1] = organism: Rattus norvegicus; assay: (§1) Inhibition of rat liver Alpha-glucosidase I using Glc3Man9GlcNAc2 substrate
Rattus norvegicus [2] = organism: Rattus norvegicus; assay: (§2) Inhibition of rat liver Alpha-glucosidase II using p-nitrophenyl alpha D-glucopyranoside substrate
[3] = Inhibition of rat liver Alpha-glucosidase II using Glc2Man7GlcNAc2 substrate after 2 hrs by NP-HPLC analysis
[4] = Inhibition of rat liver Alpha-glucosidase II using Glc1Man5GlcNAc1 substrate after 90 mins by NP-HPLC analysis
HL-60 [5] = assay: Inhibition of Alpha-glucosidase II in human HL60 cells assessed as Glc1Man4GlcNAc1 formation using 2-Anthranilic acid labelled NB-DNJ substrate by HPLC analysis; format: cell-based
[6] = Inhibition of rat liver Alpha-glucosidase II
Rattus norvegicus [7] = organism: Rattus norvegicus; assay: Inhibition of rat liver Alpha-glucosidase II upto 500 uM using Glc2Man7GlcNAc2 substrate after 2 hrs by NP-HPLC analysis
[8] = as §1
[9] = as §2
HL-60 [10] = assay: Inhibition of Alpha-glucosidase I in human HL60 cells using Glc3Man9GlcNAc2 substrate after 24 hrs by HPLC analysis; format: cell-based
Rattus norvegicus [11] = organism: Rattus norvegicus; assay: Inhibition of rat liver Alpha-glucosidase II upto 500 uM using Glc1Man5GlcNAc1 substrate after 90 mins by NP-HPLC analysis
HL-60 [12] = assay: Inhibition of Alpha-glucosidase II in human HL60 cells using 2-Anthranilic acid labelled NB-DNJ substrate after 24 hrs by HPLC analysis relative to control; format: cell-based

SMILES: CO[C@H]1O[C@H](CO)[C@@H](O)[C@H](N[C@H]2[C@H](O)[C@H](O)[C@@H](O)[C@H](O)[C@H]2O)[C@H]1O
inhibition (Rattus norvegicus [1]): inactive
inhibition (Rattus norvegicus [2]): inactive

pIC50 [3]: 4.14
pIC50 [4]: 3.84
SMILES: CO[C@H]1O[C@H](CO)[C@@H](O)[C@H](N[C@H]2C=C(CO)[C@@H](O)[C@H](O)[C@H]2O)[C@H]1O
inhibition (HL-60 [5]): Active

pIC50 [6]: 5.34
SMILES: CCCCN1C[C@H](O)[C@@H](O)[C@H](O)[C@H]1CO

pIC50 [4]: 3.63
inhibition (Rattus norvegicus [7]): inactive
SMILES: CO[C@H]1O[C@H](CO)[C@@H](O)[C@H](N[C@H]2C=C(CO)[C@@H](O)[C@H](O)[C@H]2O)[C@@H]1O
inhibition (HL-60 [5]): Active

SMILES: CO[C@H]1O[C@H](CO)[C@@H](O)[C@H](O)[C@H]1N[C@H]1C=C(CO)[C@@H](O)[C@H](O)[C@H]1O
inhibition (Rattus norvegicus [1]): inactive
inhibition (Rattus norvegicus [2]): inactive

SMILES: N[C@H]1C=C(CO)[C@@H](O)[C@H](O)[C@H]1O [VALIENAMINE]
pIC50 [8]: 3.11
pIC50 [9]: 3.00
inhibition (HL-60 [10]): inactive

inhibition (Rattus norvegicus [11]): inactive
inhibition (Rattus norvegicus [7]): inactive
SMILES: CO[C@H]1O[C@H](CN[C@H]2C=C(CO)[C@@H](O)[C@H](O)[C@H]2O)[C@@H](O)[C@H](O)[C@H]1O
inhibition (HL-60 [12]): inactive

inhibition (Rattus norvegicus [11]): inactive
inhibition (Rattus norvegicus [7]): inactive
SMILES: CO[C@H]1O[C@H](CN[C@@H]2C=C(CO)[C@@H](O)[C@H](O)[C@H]2O)[C@@H](O)[C@H](O)[C@H]1O
inhibition (HL-60 [12]): inactive
